Results as given in patent publication US20260335388A1, “COMBINATION THERAPIES WITH ONCOLYTIC ADENOVIRUS AND TOPOISOMERASE I INHIBITORS OR PRODRUGS THEREOF” (priority 2022, published 2026).
Where two headings read alike, the source gives them in different places.

How the values were obtained:
[1] = system: HSJD-RBT-5 retinoblastoma cells; assay: cells; format: cell-based; conditions: Homo sapiens
retinoblastoma cells = format: cell-based
[2] = system: HSJD-RBT-7 retinoblastoma cells; assay: cells; format: cell-based; conditions: Homo sapiens
Y79 retinoblastoma cells = assay: cells; format: cell-based
[3] = system: HSJD-RBVS-10 retinoblastoma cells; assay: cells; format: cell-based; conditions: Homo sapiens
E1a = assay: Immunoblot of E1a / E2F-1 in VCN-01-infected Y79 cells with further chemotherapeutics; format: cell-based; conditions: for expression of VCN-01 proteins (E1a): VCN-01 50 MOI, drug added at 24 h, lysis at 48 h (FIG. 7); for expression of E2F-1 and E1A: Y79 cells pre-exposed to VCN-01 (FIG. 13H)
Method: 2 million Y79 retinoblastoma cells were infected with 50 MOIs of VCN-01. […] Etoposide is topoisomerase 2 inhibitor.
In all experiments, 6-well culture plates containing 2×10^6 cells were used. […] The experiments were controlled by adding culture medium instead of the second treatment. […] The analyses were expanded to other chemotherapeutic agents including hydroxyurea ([…]), etoposide (2 μM), irinotecan (10 μM) or SN-38 (1 μM).
Near-infrared labeled secondary antibodies (Odyssey CLx, LI-COR Inc. Bad Homburg, Germany) were used for detection.

[4] = system: Y79 cells and primary retinoblastoma cultures; format: cell-based
Y79 tumors = format: in vivo, mouse; conditions: systemic drug after intratumoral VCN-01 3×10E^9 vp/tumor; 5 or 15 days (FIGS. 2A-B)
[5] = system: HSJD-NB-005 neuroblastoma; assay: Antitumor activity in neuroblastoma PDX HSJD-NB-005; format: in vivo, mouse; conditions: single treatment (FIG. 24D,F)
Method: PDX of neuroblastoma (pediatric solid tumor) were implanted subcutaneously into athymic nude mice. Tumor model was HSJD-NB-005. Upon engraftment (tumor volumes ranging 100-500 mm^3), treatments were started. The activity of topotecan vs. irinotecan in combination with VCN-01 was evaluated. The following groups of mice were included in the study, with an n of 6 tumors per group: • Group 1: no treatment • Group 2: topotecan i.p. at 0.6 mg/kg, Day 1-5 • Group 3: irinotecan i.p. at 10 mg/kg, Day 1-5 • Group 4: VCN-01 i.t at 3E9 vp/tumor, Day 1 • Group 5: VCN-01 i.t at 3E9 vp/tumor, Day 1 (morning)+topotecan i.p. at 0.6 mg/kg, Day 1-5 • Group 6: VCN-01 i.t at 3E9 vp/tumor, Day 1 (morning)+irinotecan i.p. at 10 mg/kg, Day 1-5
Antitumor activity in extracranial pediatric solid tumors. 5-10 mm^3 fresh fragments of Ewing sarcoma or neuroblastoma PDX were implanted in both flanks of mice. Upon s.c. engraftment (tumor volume 150-200 mm^3), mice received topotecan (0.6 mg/kg, i.p., days 1-5), VCN-01 (3×10^9 vp in 20 µL vehicle, intratumoral, day 1), or the combination. In two additional groups, an alternative topoisomerase 1 inhibitor, irinotecan (10 mg/kg, i.p., on days 1-5) we used in place of topotecan. Upon completion of treatments, tumor volumes were followed until endpoint (1500 mm^3), or until day 80.

[6] = read-out: IC50, Melphalan single agent
[7] = read-out: IC50, Melphalan with VCN-01 (10 MOI)

Molecule: N[C@@H](Cc1ccc(N(CCCl)CCCl)cc1)C(=O)O [Melphalan, melphalan]
- IC50 [1, 6]: 478 nM
- IC50 [1, 7]: 636 nM
- cell sensitivity to drug after VCN-01 infection (retinoblastoma cells): decreased cell sensitivity
- IC50 [2, 6]: 1420 nM
- IC50 [2, 7]: 8480 nM
- IC50 (Y79 retinoblastoma cells; [6]): 3250 nM
- IC50 (Y79 retinoblastoma cells; [7]): 5830 nM
- IC50 [3, 6]: 241 nM
- IC50 [3, 7]: 2020 nM

Molecule: COc1cc([C@@H]2c3cc4c(cc3[C@@H](O[C@@H]3O[C@@H]5CO[C@@H](C)O[C@H]5[C@H](O)[C@H]3O)[C@H]3COC(=O)[C@H]23)OCO4)cc(OC)c1O [etoposide]
- expression of VCN-01 proteins (E1a) (E1a): does not induce the same effect
- expression of E2F-1 and E1A (E1a): did not modify the levels of these proteins

Molecule: NC(=O)NO [hydroxyurea]
- transgene expression, virus first ([4]; cells pre-infected with AdTLRGDK (FIG. 18E, FIG. 19A)): increased transgene expression
- viral transduction, drug first ([4]; drug exposure before viral infection (FIG. 18E)): did not enhance viral transduction
- VCN-01 genome content in tumors (Y79 tumors): the enhancement of VCN-01 replication in vivo appears to be specific to topotecan
- expression of E2F-1 and E1A (E1a): did not modify the levels of these proteins

Molecule: CCc1c2c(nc3ccc(OC(=O)N4CCC(N5CCCCC5)CC4)cc13)-c1cc3c(c(=O)n1C2)COC(=O)[C@]3(O)CC [irinotecan]
- response of xenograft to single treatment [5]: highly resistant
- expression of VCN-01 proteins (E1a) (E1a): does not work in vitro

Molecule: SN-38
- expression of VCN-01 proteins (E1a) (E1a): increases expression of VCN-01 proteins
- expression of E2F-1 and E1A (E1a): increased the expression of E2F-1 and E1A similarly to topotecan
